Measurements from patent US6358885B1, “Substituted phenylheterocyclic herbicides” (Mississippi State University, priority 1992, dated 2002).

Legend:
barnyardgrass = experiment: Test B preemergence/postemergence greenhouse plant response rating 0 to 10; format: in vivo, Echinochloa crus-galli; details: 0 to 10 scale
How it was run: (§1)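 Test chemicals were sprayed onto freshly planted seed and, concurrently, onto young plants between the one and four leaf stage. After a twelve- to sixteen-day greenhouse period, each species was visually compared with untreated controls.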

cocklebur = experiment: as above; format: in vivo, Xanthium pensylvanicum; details: 0 to 10 scale
How it was run: as §1

cotton = experiment: as above; format: in vivo, Gossypium hirsutum; details: 0 to 10 scale
How it was run: as §1

morningglory = experiment: as above; format: in vivo, Ipomoea hederacea; details: 0 to 10 scale
How it was run: as §1

rice [1] = experiment: as above; format: in vivo, Oryza sativa; details: 0 to 10 scale
How it was run: as §1

sorghum = experiment: as above; format: in vivo, Sorghum bicolor; details: 0 to 10 scale
How it was run: as §1

wheat = experiment: as above; format: in vivo, Triticum aestivum; details: 0 to 10 scale
How it was run: as §1

wild oat = experiment: as above; format: in vivo, Avena fatua; details: 0 to 10 scale
How it was run: as §1

blackgrass = experiment: Test C preemergence/postemergence greenhouse plant response rating 0 to 100; format: in vivo, Alopecurus myosuroides; details: POSTEMERGENCE; for Plant response rating, Blackgrass: 0 to 100 scale
Excerpt: (§2) The compounds evaluated in this test were formulated in a non-phytoxic solvent and applied to the soil surface before plant seedlings emerged (preemergence application), to water that covered the soil surface (flood application), and to plants that were in the one-to-four leaf stage (postemergence application). A sandy loam soil was used for the preemergence and postemergence tests, while a silt loam soil was used in the flood test. Water depth was approximately 2.5 cm for the flood test and was maintained at this level for the duration of the test. Plant species in the preemergence and postemergence tests consisted of barley (Hordeum vulgare), bedstraw (Galium aparine), blackgrass (Alopecurus myosuroides), chickweed (Stellaria media), corn (Zea mays), cotton (Gossypium hirsutum), crabgrass (Digitaria sanguinalis), downy brome (Bromus tectorum), giant foxtail (Setaria faberii), lambsquarters (Chenopodium album), morningglory (Ipomoea hederacea), pigweed ([…]), rape (Brassica napus), ryegrass (Lolium multiflorum), sorghum (Sorghum bicolor), soybean (Glycine max), speedwell (Veronica persica), sugar beet (Beta vulgaris), velvetleaf (Abutilon theophrasti), wheat (Triticum aestivum), wild buckwheat (Polygonum convolvulus), and wild oat (Avena fatua). All plant species were planted one day before application of the compound for the preemergence portion-of this test. Plantings of these species were adjusted to produce plants of appropriate size for the post-emergence portion of the test. […] All plant species were grown using normal greenhouse practices. Visual evaluations of injury expressed on treated plants, when compared to untreated controls, were recorded approximately fourteen to twenty one days after application of the test compound. […] A dash (-) response means no test result.

crabgrass = experiment: as above; format: in vivo, Digitaria sanguinalis; details: POSTEMERGENCE; for Plant response rating, Crabgrass: 0 to 100 scale
Excerpt: as §2

rape = experiment: as above; format: in vivo, Brassica napus; details: POSTEMERGENCE; for Plant response rating, Rape: 0 to 100 scale
Excerpt: as §2

rice [2] = experiment: Test C flood test plant response rating 0 to 100; format: in vivo, Oryza sativa; details: for Plant response rating (0 to 100), Rice Japonica: under POSTEMERGENCE head (flood test species); for Plant response rating Rice Japonica: flood test species listed under POSTEMERGENCE, 0 to 100 scale
Excerpt: as §2

umbrella sedge = experiment: Test C flood test plant response rating 0 to 100; format: in vivo, Cyperus difformis; details: for Plant response rating (0 to 100), Umbrella sedge: under POSTEMERGENCE head (flood test species); for Plant response rating Umbrella sedge: flood test species listed under POSTEMERGENCE, 0 to 100 scale
Excerpt: as §2

SMILES: C=C(Cl)COc1cc(-c2nn3c(c2Cl)CCCC3)c(F)cc1Cl [Compound 40]
- Plant response rating, Barnyardgrass (barnyardgrass; POSTEMERGENCE, Rate 50 g/ha): 4
- Plant response rating, Barnyardgrass (barnyardgrass; POSTEMERGENCE, Rate 200 g/ha): 4
- Plant response rating, Barnyardgrass (barnyardgrass; PREEMERGENCE, Rate 50 g/ha): 1
- Plant response rating, Barnyardgrass (barnyardgrass; Rate 200 g/ha, PREEMERGENCE): 3
- Plant response rating, Cocklebur (cocklebur; POSTEMERGENCE, Rate 50 g/ha): 5
- Plant response rating, Cocklebur (cocklebur; POSTEMERGENCE, Rate 200 g/ha): 10
- Plant response rating, Cocklebur (cocklebur; PREEMERGENCE, Rate 50 g/ha): 5
- Plant response rating, Cocklebur (cocklebur; Rate 200 g/ha, PREEMERGENCE): 8
- Plant response rating, Cotton (cotton; POSTEMERGENCE, Rate 50 g/ha): 10
- Plant response rating, Cotton (cotton; POSTEMERGENCE, Rate 200 g/ha): 10
- Plant response rating, Cotton (cotton; PREEMERGENCE, Rate 50 g/ha): 1
- Plant response rating, Cotton (cotton; Rate 200 g/ha, PREEMERGENCE): 7
- Plant response rating, Morningglory (morningglory; POSTEMERGENCE, Rate 50 g/ha): 3
- Plant response rating, Morningglory (morningglory; PREEMERGENCE, Rate 50 g/ha): 1
- Plant response rating, Morningglory (morningglory; Rate 200 g/ha, POSTEMERGENCE): 9
- Plant response rating, Morningglory (morningglory; Rate 200 g/ha, PREEMERGENCE): 4
- Plant response rating, Rice (rice [1]; POSTEMERGENCE, Rate 50 g/ha): 5
- Plant response rating, Rice (rice [1]; PREEMERGENCE, Rate 50 g/ha): 0
- Plant response rating, Rice (rice [1]; Rate 200 g/ha, POSTEMERGENCE): 5
- Plant response rating, Rice (rice [1]; Rate 200 g/ha, PREEMERGENCE): 0
- Plant response rating, Sorghum (sorghum; POSTEMERGENCE, Rate 50 g/ha): 4
- Plant response rating, Sorghum (sorghum; PREEMERGENCE, Rate 50 g/ha): 0
- Plant response rating, Sorghum (sorghum; Rate 200 g/ha, POSTEMERGENCE): 5
- Plant response rating, Sorghum (sorghum; Rate 200 g/ha, PREEMERGENCE): 1
- Plant response rating, Wheat (wheat; POSTEMERGENCE, Rate 50 g/ha): 4
- Plant response rating, Wheat (wheat; PREEMERGENCE, Rate 50 g/ha): 0
- Plant response rating, Wheat (wheat; Rate 200 g/ha, POSTEMERGENCE): 6
- Plant response rating, Wheat (wheat; Rate 200 g/ha, PREEMERGENCE): 2
- Plant response rating, Wild oat (wild oat; POSTEMERGENCE, Rate 50 g/ha): 4
- Plant response rating, Wild oat (wild oat; PREEMERGENCE, Rate 50 g/ha): 0
- Plant response rating, Wild oat (wild oat; Rate 200 g/ha, POSTEMERGENCE): 5
- Plant response rating, Blackgrass (blackgrass; 62 g/ha): 50
- Plant response rating, Blackgrass (blackgrass; 125 g/ha): 70
- Plant response rating (0 to 100), Blackgrass (blackgrass; Rate 16 g/ha): 20
- Plant response rating (0 to 100), Blackgrass (blackgrass; Rate 31 g/ha): 30
- Plant response rating, Crabgrass (crabgrass; 62 g/ha): 10
- Plant response rating, Crabgrass (crabgrass; 125 g/ha): 10
- Plant response rating (0 to 100), Crabgrass (crabgrass; Rate 16 g/ha): 10
- Plant response rating (0 to 100), Crabgrass (crabgrass; Rate 31 g/ha): 10
- Plant response rating, Rape (rape; 62 g/ha): 70
- Plant response rating, Rape (rape; 125 g/ha): 70
- Plant response rating (0 to 100), Rape (rape; Rate 16 g/ha): 50
- Plant response rating (0 to 100), Rape (rape; Rate 31 g/ha): 70
- Plant response rating (0 to 100), Rice Japonica (rice [2]; Rate 16 g/ha): 35
- Plant response rating (0 to 100), Rice Japonica (rice [2]; Rate 31 g/ha): 35
- Plant response rating Rice Japonica (rice [2]; 62 g/ha): 40
- Plant response rating Rice Japonica (rice [2]; 125 g/ha): 40
- Plant response rating (0 to 100), Umbrella sedge (umbrella sedge; Rate 16 g/ha): 0
- Plant response rating (0 to 100), Umbrella sedge (umbrella sedge; Rate 31 g/ha): 0
- Plant response rating Umbrella sedge (umbrella sedge; 62 g/ha): 10
- Plant response rating Umbrella sedge (umbrella sedge; 125 g/ha): 70
